Data taken from patent US10640492B2, “Tubulin inhibitor” (SHENZHEN NEPTUNUS PHARMACEUTICAL RESEARCH INSTITUTE CO., …, priority 2016, dated 2020).

Tests used:
[1] = tested on: drug-resistant MES-SA cells (p-glycoprotein induced); test: Inhibitory effect on tumor proliferation, drug-resistant MES-SA transplanted tumor; type: in vivo; settings: drug-resistant MES-SA nude mice, dose that does not reduce body weight, vs blank vehicle (FIG. 1)
Protocol: MES-SA cells (derived from ATCC) were cultured in low concentration of adriamycin for a long time to maintain sufficient cell viability and induced the expression of p-glycoprotein. After culturing for 10 months, the results of induced expression were detected by WB. After successful induction, the cells were cultured for one week in adriamycin-free medium. The tumor cells with adjusted concentration were inoculated into the armpit of nude mice. The transplanted tumors were treated with different drugs when they grew to a certain volume. Different doses of different drugs were administrated to blank mice to explore the drug dose not affecting the body weight of the animals, namely the dose to be administrated to treat the animals with transplanted tumors.

[2] = tested on: tumor cells inoculated in nude mice
Protocol: The nude mice inoculated with tumor cells were administrated with blank vehicle, docetaxel, compound 17 as well as the combination drug of docetaxel and compound 17. The tumor volume was measured at different time period after the administration and the change of tumor volume was evaluated. At the same time, the change of body weight of the nude mice was examined to evaluate the antitumor effect and the toxicity degree of the drug. In addition, based on the above administration and grouping methods, the blood neutrophil count level for normal SD rats was measured before administration and after the final administration to evaluate the influence of the drug on neutrophil counts.

[3] = tested on: blood neutrophil count; test: Neutrophil count after compound 17 in combination with docetaxel; type: in vivo; settings: normal SD rats, after final administration (FIG. 2C)
[4] = tested on: neutrophil count; test: Effect on the neutrophil count at equivalent pharmacodynamic dose; settings: rats, continuous administration for two weeks (FIG. 3)
From the text: Multiple doses of different drugs were administrated to the nude mice respectively and the potency of the drugs in inhibiting the transplanted tumor in the nude mice was investigated. Base on the investigation, the equivalent dose of each drug was identified and converted to rat dose before administrated to the rats. That is, by administrating the rats with relatively equivalent pharmacodynamic dose, the effect of the drugs on the neutrophil count was examined. After continuously administration for two weeks, blood samples were collected and neutrophil counts were measured (FIG. 3).

[5] = tested on: tubulin in HuVEC cells; test: Action on microtubule function, α-tubulin staining in HuVEC; type: cell-based, human; settings: 2 μM, 30 minutes, vs DMSO control
From the text: Human umbilical vein endothelial cells (HuVEC from Cambrex) were used in this study.

[6] = tested on: blood flow distribution in tissues and tumor tissue; test: Blood flow distribution of tissues and tumor; type: in vivo, nude mice; settings: two hours after administration, same pharmacodynamic dose, vs blank vehicle
From the text: In this example, the effects of drugs on blood flow distribution of different tissues and organs at the same pharmacodynamic dose were simultaneously tested.

[7] = tested on: AGS human gastric adenocarcinoma cell strain; test: CCK-8 cytotoxicity IC50, AGS; settings: 72 h, read-out: cytotoxicity IC50
Protocol: AGS human gastric adenocarcinoma cell strain (purchased from Shanghai Cell Resource Center, Chinese Academy of Sciences)
(§1) a) The compound was serially diluted with DMSO starting from 0.5 μM, using twice echelon dilution.
(§2) The logarithmic growth phase cells were collected and counted. The cells were re-suspended in complete medium, whose concentration was adjusted according to the test results of the cell density optimization, and then seeded into 96-well plates with 100 μl of the cell suspension to each well. The cells were incubated in a 37° C., 100% relative humidity, 5% CO2 incubator for 24 hours.
(§3) b) The test compound was diluted with the medium to the corresponding action concentrations set up, and added into the cells in the plates at 25 μl/well. The test compound was prepared in 9 final action concentrations, which were obtained by sequentially diluted from 500 nM using twice echelon dilution.
(§4) c) The cells were incubated in a 37° C., 100% relative humidity, 5% CO2 incubator for 72 hours.
(§5) d) The medium was removed from the cells, and a complete medium containing 10% CCK-8 was added and incubated in a 37° C. incubator for 1-4 hours.
(§6) e) After gentle shaking, the absorbance at 450 nm of the sample was measured on a SpectraMax M5 Microplate Reader, and the inhibition ratio was calculated using the absorbance at 650 nm as reference.
(§7) The inhibition ratio of the drug on tumor cell growth was calculated as follows: tumor cell growth inhibition %=[(Ac−As)/(Ac−Ab)]×100%
(§8) The IC50 curve was fitted and the IC50 value was calculated using the software Graphpad Prism 5 and using the calculation formula log(inhibitor) vs. normalized response-variable slope or log(inhibitor) vs. response-variable slope.

[8] = tested on: A-673 human rhabdomyosarcoma cell strain; test: CCK-8 cytotoxicity IC50, A-673; settings: A673, 72 h, read-out: cytotoxicity IC50
Protocol: (§9) To test the cytotoxic IC50 values of 14 candidate compounds against 5 cell strains (MDA-MB-231, HT-1080, AGS, A-673 & HUVEC) using a CCK-8 test kit.
as §1, §2, §3, §4, §5, §6, §7, §8

[9] = CCK-8 cytotoxicity IC50, HUVEC; settings: human, HUVEC umbilical vein endothelial cells
Protocol: HUVEC human umbilical vein endothelial cell strain (purchased from ScienCell Research Laboratories, Cat #8000, Lot #11233)
as §1, §2, §3, §4, §5, §6, §7, §8

[10] = tested on: HT-1080 human fibrosarcoma cell strain; test: CCK-8 cytotoxicity IC50, HT-1080; settings: HT-1080, 72 h, read-out: cytotoxicity IC50
Protocol: as §9, §1, §2, §3, §4, §5, §6, §7, §8

[11] = tested on: MDA-MB-231 human breast cancer cell strain; test: CCK-8 cytotoxicity IC50, MDA-MB-231; settings: MDA-MB-231, 72 h, read-out: cytotoxicity IC50
Protocol: as §9
MDA-MB-231 human breast cancer cell strain (purchased from Shanghai Cell Resource Center, Chinese Academy of Sciences)
as §1, §2, §3, §4, §5, §6, §7, §8

[12] = Stability investigation (10-day accelerated stress testing)
Protocol: The tested conditions included 40° C., 60° C., humidity 75%, humidity 92.5%, and light. And under each condition, moisture, purity, maximum single impurity and total impurity of the compound tested were compared to that of day 0.

[13] = Day 10, sample 1 (no stress condition given)

## CC(=O)O[C@@]12CO[C@@H]1C[C@H](O)[C@@]1(C)C(=O)[C@H](O)C3=C(C)[C@@H](OC(=O)[C@H](O)[C@@H](NC(=O)OC(C)(C)C)c4ccccc4)C[C@@](O)([C@@H](OC(=O)c4ccccc4)[C@H]21)C3(C)C [docetaxel, reference compound]
[1]
  anti-tumor proliferation effect (tumor weight): relatively poor pharmacodynamic effect
[2]; mouse, in vivo
  change of body weight (toxicity): weight loss of animals caused by the toxicity of docetaxel
[3]
  blood neutrophil count: neutrophil count decrease caused by docetaxel
[4]
  neutrophil count: can significantly reduce the neutrophil count

## CC(C)(C)c1[nH]cnc1/C=C1\NC(=O)[C@H](Cc2ccccc2)NC1=O [tert-butyl-phenylahistin, reference compound]
[5]
  cell membrane blebbing: induced
  microtubule depolymerization: induced

## CC(C)(C)c1[nH]cnc1/C=c1\[nH]c(=O)/c(=C/C=C/c2cccc(C#N)c2)[nH]c1=O [Compound 15]
[1]
  anti-tumor proliferation effect (tumor weight): can effectively exert anti-tumor proliferation effects
[6]
  distribution of blood flow in tissues except tumor tissues: did not significantly affect the distribution of blood flow in tissues except tumor tissues
  intratumoral blood flow distribution: can significantly reduce the intratumoral blood flow distribution
[5]
  cell membrane blebbing: induced
  microtubule depolymerization: induced
[7]
  IC50: 0.0635 µM
[8]
  IC50: 0.0949 µM
[9]
  IC50 at 72 h: 0.0786 µM
[10]
  IC50: 0.0788 µM
[11]
  IC50: 0.123 µM
[4]
  neutrophil count: had no obvious effect on neutrophils

## CC(C)(C)c1nc[nH]c1/C=c1\[nH]c(=O)/c(=C/C=C/c2cccc(F)c2)[nH]c1=O [Compound 7]
[1]
  anti-tumor proliferation effect (tumor weight): can effectively exert anti-tumor proliferation effects
[6]
  distribution of blood flow in tissues except tumor tissues: did not significantly affect the distribution of blood flow in tissues except tumor tissues
  intratumoral blood flow distribution: can significantly reduce the intratumoral blood flow distribution
[5]
  cell membrane blebbing: induced
  microtubule depolymerization: induced
[7]
  IC50: 0.043 µM
[8]
  IC50: 0.0354 µM
[9]
  IC50 at 72 h: 0.0949 µM
[10]
  IC50: 0.0436 µM
[11]
  IC50: 0.0395 µM
[4]
  neutrophil count: had no obvious effect on neutrophils

## CC(C)(C)c1[nH]cnc1/C=c1\[nH]c(=O)/c(=C/C=C/c2cc(F)ccc2Cl)[nH]c1=O [Compound 17]
[1]
  anti-tumor proliferation effect (tumor weight): can effectively exert anti-tumor proliferation effects
[6]
  distribution of blood flow in tissues except tumor tissues: did not significantly affect the distribution of blood flow in tissues except tumor tissues
  intratumoral blood flow distribution: can significantly reduce the intratumoral blood flow distribution
[2]; nude mice inoculated with tumor cells (FIG. 2A)
  inhibition of tumor proliferation (tumor volume): can effectively inhibit the proliferation of tumor in vivo
[5]
  cell membrane blebbing: induced
  microtubule depolymerization: induced
[7]
  IC50: 0.0108 µM
[8]
  IC50: 0.00726 µM
[9]
  IC50 at 72 h: 0.035 µM
[10]
  IC50: 0.0146 µM
[11]
  IC50: 0.0204 µM
[12]; 10-day accelerated test: 40° C., 60° C., humidity 75%, humidity 92.5%, light
  stability, overall finding: stable
[12]; Day 0
  Content: 99.8%
  Maximum single impurity: 0.03 (RRT: 0.31) %
  Moisture: 0.1%
  Total impurity: 0.06%
[12]; Day 5, 40° C.
  Content: 100.9%
  Maximum single impurity: 0.02 (RRT: 0.31) %
  Moisture: 0.1%
  Total impurity: 0.05%
[12]; Day 5, 60° C.
  Content: 99.0%
  Maximum single impurity: 0.03 (RRT: 0.31) %
  Moisture: 0.2%
  Total impurity: 0.06%
[12]; Day 5, humidity 75%
  Content: 99.5%
  Maximum single impurity: 0.02 (RRT: 0.32) %
  Moisture: 0.2%
  Total impurity: 0.07%
[12]; Day 5, humidity 92.5%
  Content: 99.5%
  Maximum single impurity: 0.02 (RRT: 0.31) %
  Moisture: 0.3%
  Total impurity: 0.07%
[12]; Day 5, light
  Content: 100.3%
  Maximum single impurity: 0.04 (RRT: 0.31) %
  Moisture: 0.1%
  Total impurity: 0.07%
[12]; Day 10, 40° C.
  Content: 100.5%
  Maximum single impurity: 0.04 (RRT: 0.31) %
  Moisture: 0.1%
  Total impurity: 0.07%
[12]; Day 10, 60° C.
  Content: 99.7%
  Maximum single impurity: 0.03 (RRT: 0.31) %
  Moisture: 0.2%
  Total impurity: 0.08%
[12]; Day 10, humidity 75%
  Content: 99.0%
  Maximum single impurity: 0.04 (RRT: 0.31) %
  Moisture: 0.2%
  Total impurity: 0.11%
[12]; Day 10, humidity 92.5%
  Content: 99.4%
  Maximum single impurity: 0.03 (RRT: 0.31) %
  Moisture: 0.3%
  Total impurity: 0.08%
[12]; Day 10, light
  Content: 99.6%
  Maximum single impurity: 0.04 (RRT: 0.31) %
  Moisture: 0.1%
  Total impurity: 0.09%
[12]; [13]
  Content: 100.4%
  Maximum single impurity: 0.03 (RRT: 0.31) %
  Moisture: 0.1%
  Total impurity: 0.08%
[4]
  neutrophil count: had no obvious effect on neutrophils

## CC(C)(C)c1[nH]cnc1/C=c1\[nH]c(=O)/c(=C/C=C/c2ccc(OC(F)(F)F)cc2)[nH]c1=O [Compound 10]
[1]
  anti-tumor proliferation effect (tumor weight): can effectively exert anti-tumor proliferation effects
[6]
  distribution of blood flow in tissues except tumor tissues: did not significantly affect the distribution of blood flow in tissues except tumor tissues
  intratumoral blood flow distribution: can significantly reduce the intratumoral blood flow distribution
[5]
  cell membrane blebbing: induced
  microtubule depolymerization: induced
[7]
  IC50: 0.0949 µM
[8]
  IC50: 0.165 µM
[9]
  IC50 at 72 h: 0.363 µM
[10]
  IC50: 0.224 µM
[11]
  IC50: 0.105 µM
[4]
  neutrophil count: had no obvious effect on neutrophils

## COc1ccc(/C=C/C=c2\[nH]c(=O)/c(=C/c3nc[nH]c3C(C)(C)C)[nH]c2=O)cc1 [Compound 12]
[1]
  anti-tumor proliferation effect (tumor weight): can effectively exert anti-tumor proliferation effects
[6]
  distribution of blood flow in tissues except tumor tissues: did not significantly affect the distribution of blood flow in tissues except tumor tissues
  intratumoral blood flow distribution: can significantly reduce the intratumoral blood flow distribution
[5]
  cell membrane blebbing: induced
  microtubule depolymerization: induced
[7]
  IC50: 0.0353 µM
[8]
  IC50: 0.0373 µM
[9]
  IC50 at 72 h: 0.0431 µM
[10]
  IC50: 0.137 µM
[11]
  IC50: 0.0455 µM
[4]
  neutrophil count: had no obvious effect on neutrophils

## CC(=O)O[C@H]1C(=O)[C@@]2(C)[C@H]([C@H](OC(=O)c3ccccc3)[C@]3(O)C[C@H](OC(=O)[C@H](O)[C@@H](NC(=O)c4ccccc4)c4ccccc4)C(C)=C1C3(C)C)[C@]1(OC(C)=O)CO[C@@H]1C[C@@H]2O [Paclitaxel, paclitaxel, reference compound]
[5]
  microtubule depolymerization: did not induce microtubule depolymerization
